Data: paper PMC5730575, “A Simple Platform for the Rapid Development of Antimicrobials” (Scientific Reports, 2017)

Key:
[1] = tested on: S. epidermidis; assay: 100-peptide microarray binding of S. epidermidis; conditions: S. epidermidis labeled with CTO and AF647, 106 CFU/mL
[2] = tested on: A/CA/7/2009 H1N1 pdm09 hemagglutination of turkey red blood cells; assay: Hemagglutination inhibition (HAI) assay; type: biochemical, influenza A/CA/07/2009 pdm09 H1N1; conditions: peptides tested 50 µM to 1.76 µM, 2 fold dilutions; 1 HAU virus; 0.5% turkey RBC; non-inhibitors: even at 50 µM
[3] = tested on: A/CA/07/2009 pdm09 H1N1; assay: 100-peptide microarray binding of pdm09 H1N1; parameters: species or system influenza A/CA/07/2009 pdm09 H1N1; conditions: two color fluorescent labeling (AF555/AF647); six replicate spots per peptide; versus background in empty spots, p < 0.01
[4] = cited from earlier work

Row | Substance | binding of S. epidermidis on the peptide array [1] | inhibition of hemagglutination by pdm09 of red blood cells (peptides) [2] | binding of pdm09 H1N1 on the peptide array [3] | elimination half-life [4] [h]
1 | CSGAMHGPATTRPAIGRYPW [p52] | positives binders | – | – | –
2 | CSGAVNYQEVFNKARMKKKR [p58] | – | did not prevent hemagglutination | bound | –
3 | CSGEWRQQKMMPKSAPNKPQ [p94] | – | – | did not | –
4 | CSGFRKHPWKHPRHKFHKPW [p104] | positives binders | – | – | –
5 | CSGFWPRKHPFRWKHPRPKH [p107] | – | did not prevent hemagglutination | bound | –
6 | CSGHNIYAQYGYPYDHMYEG [p125] | – | inhibited hemagglutination | – | –
7 | CSGKSQEIGDPDDIWNQMKW [p149] | – | inhibited hemagglutination | – | –
8 | CSGKVHRWKYHSRQNYTYRP [p151] | – | did not prevent hemagglutination | bound | –
9 | CSGNETAPDNTYRYKQSAQK [p174] | – | did not prevent hemagglutination | bound | –
10 | CSGQFSAKKYWEIKPMDYWK [p204] | – | did not prevent hemagglutination | bound | –
11 | CSGSFNQEYFPYPMIDYLKK [p227] | – | inhibited hemagglutination | – | –
12 | CSGYNWSRKKHKYYPRKIAY [p43] | – | did not prevent hemagglutination | bound | –
13 | CSGYYDVHMGPMNDNHYFKK [p228] | – | did not prevent hemagglutination | bound | –
14 | enfuvirtide | – | – | – | 3.8
